Measurements from paper PMC9776381, “A Large-Scale High-Throughput Screen for Modulators of SERCA Activity” (Biomolecules, 2022).

Tests used:
[1] = biological target: T1, SERCA1a (rabbit light skeletal SR vesicles) (Oryctolagus cuniculus, UniProt P04191); experiment: NADH-coupled Ca-ATPase activity assay, skeletal SR (CRC at pCa 5.4); format: biochemical; conditions: n = 3; for Skeletal SR ATPase Activity Percent Increase: maximal effect of CRC 0.05 to 50 µM, pCa 5.4, relative to DMSO, mean ± SD; for EC50: pCa 5.4, mean ± SD
T1 construct: rabbit muscles were freshly harvested from the back and hind leg of New Zealand White rabbits and purified using a sucrose gradient; from tissue; host or cells: rabbit (New Zealand White) back and hind leg skeletal muscle, light SR vesicles
T1 sequence (P04191 1-994 isoform P04191-2): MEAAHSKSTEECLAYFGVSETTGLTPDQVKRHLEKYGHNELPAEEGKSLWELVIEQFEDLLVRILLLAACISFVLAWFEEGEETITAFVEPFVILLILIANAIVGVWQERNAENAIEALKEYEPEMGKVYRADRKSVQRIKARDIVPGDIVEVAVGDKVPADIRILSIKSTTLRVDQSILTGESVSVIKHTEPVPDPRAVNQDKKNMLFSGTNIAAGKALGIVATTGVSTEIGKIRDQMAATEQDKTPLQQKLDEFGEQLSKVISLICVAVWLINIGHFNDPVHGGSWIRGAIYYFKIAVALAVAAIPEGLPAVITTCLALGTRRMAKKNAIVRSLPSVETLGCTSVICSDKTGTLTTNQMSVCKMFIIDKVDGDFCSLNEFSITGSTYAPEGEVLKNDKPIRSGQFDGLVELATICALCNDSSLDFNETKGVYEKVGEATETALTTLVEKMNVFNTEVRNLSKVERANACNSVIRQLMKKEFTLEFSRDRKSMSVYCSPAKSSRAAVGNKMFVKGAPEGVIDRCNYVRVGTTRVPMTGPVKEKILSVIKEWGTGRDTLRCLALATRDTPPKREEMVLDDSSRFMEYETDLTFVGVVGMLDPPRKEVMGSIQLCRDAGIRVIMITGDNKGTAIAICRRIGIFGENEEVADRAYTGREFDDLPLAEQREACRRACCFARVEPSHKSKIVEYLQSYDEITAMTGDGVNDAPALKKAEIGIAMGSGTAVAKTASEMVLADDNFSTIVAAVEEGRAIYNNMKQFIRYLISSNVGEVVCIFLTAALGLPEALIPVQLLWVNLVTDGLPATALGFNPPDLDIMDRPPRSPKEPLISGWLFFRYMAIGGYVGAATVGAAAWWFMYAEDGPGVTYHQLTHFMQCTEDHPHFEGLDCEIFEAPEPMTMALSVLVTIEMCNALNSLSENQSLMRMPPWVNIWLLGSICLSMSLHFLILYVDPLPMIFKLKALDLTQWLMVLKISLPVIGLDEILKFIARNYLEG
Method: (§1) For skeletal SR, rabbit muscles were freshly harvested from the back and hind leg of New Zealand White rabbits and purified using a sucrose gradient. The resulting light skeletal SR contains 80% SERCA, as a proportion of total protein content. Cardiac SR vesicles were isolated from fresh porcine left ventricular tissue.
(§2) Functional assays were performed using rabbit light skeletal sarcoplasmic (SR) vesicles. For high-throughput NADH-coupled screening, assay mix containing a final concentration of 50 mM MOPS (pH 7.0), 100 mM KCl, 1 mM EGTA, 0.2 mM NADH, 1 mM phosphoenol pyruvate, 10 IU/mL of pyruvate kinase, 10 IU/mL of lactate dehydrogenase, 1 µM of the calcium ionophore A23187, 4 µg/mL skeletal SR, and added CaCl2 to obtain pCa 5.4 was dispensed into 384-well DIVERSet assay plates containing 50 nL of compound or DMSO using a FlexDrop Precision liquid dispenser (Perkin Elmer, Waltham, Massachusetts). Plates were sealed, covered from light, and incubated at room temperature for 20 min. The assay was then started by dispensing MgATP (termed “initiation mix”), to a final concentration of 5 mM in each well (80 µL total assay volume) with the FlexDrop liquid dispenser (Perkin Elmer). The time dependence of absorbance was measured at 340 nm in a SpectraMax Plus384 microplate spectrophotometer (Molecular Devices, Sunnyvale, CA). For follow-up concentration response curves of Hit compounds, 400 nL of either compound or DMSO was dispensed into each well using an Echo liquid dispenser (Beckman Coulter). Testing dose-dependent compound effects on rabbit skeletal SR vesicles was done using the same method, as described above in 384-well plates. Determining compound effects on cardiac SR vesicles was done in a similar method as above, with the exception of 10 µg/mL of cardiac SR incubated in assay mix consisting of a final concentration of 50 mM MOPS (pH 7.0), 100 mM KCl, 1 mM EGTA, 1 µM of the calcium ionophore A23187, and added CaCl2 to the desired free calcium values. After a 20 min incubation, the “initiation mix”, containing a final concentration of 0.2 mM NADH, 1 mM phosphoenol pyruvate, 10 IU/mL of pyruvate kinase, 10 IU/mL of lactate dehydrogenase, and 5mM MgATP, was dispensed into each well.
The initial screen assay was performed with compounds at 10 µM. To better study the selected Hit compounds for their activation potential, we performed ATPase analyses (in triplicate) over a range of Hit concentrations (0.05 to 50 µM), generating concentration-response curves (CRCs) to determine maximal effects and EC50 (Figure 2). We used the same Ca^2+ concentration (pCa 5.4) as in the screening assays, thus focusing on the effects on the maximal velocity of SERCA. Two of the selected Hits yielded no response in follow-up assays, probably due to a mismatch in chemical composition between the library compound and the subsequently ordered compound (DS95401435 and DS41547941). This type of discrepancy is a typical hurdle in the screening process. Each of the other 19 compounds produced a substantial increase in ATPase activity, ranging from 30% to 72% (Table 1 and Supporting Information, Figure S1), as expected due to similarity of the CRC assay to the initial screen.

[2] = biological target: T2, SERCA2a (cardiac SR vesicles) (Sus scrofa, UniProt P11607); experiment: NADH-coupled Ca-ATPase activity assay, cardiac SR (CRC at pCa 5.4); format: biochemical, porcine; conditions: pCa 5.4, mean ± SD, n = 3; for Cardiac SR ATPase Activity Percent Increase: maximal effect of CRC
T2 construct: Cardiac SR vesicles were isolated from fresh porcine left ventricular tissue; from tissue; host or cells: porcine left ventricular tissue, cardiac SR vesicles
T2 sequence (P11607 1-997 isoform P11607-2): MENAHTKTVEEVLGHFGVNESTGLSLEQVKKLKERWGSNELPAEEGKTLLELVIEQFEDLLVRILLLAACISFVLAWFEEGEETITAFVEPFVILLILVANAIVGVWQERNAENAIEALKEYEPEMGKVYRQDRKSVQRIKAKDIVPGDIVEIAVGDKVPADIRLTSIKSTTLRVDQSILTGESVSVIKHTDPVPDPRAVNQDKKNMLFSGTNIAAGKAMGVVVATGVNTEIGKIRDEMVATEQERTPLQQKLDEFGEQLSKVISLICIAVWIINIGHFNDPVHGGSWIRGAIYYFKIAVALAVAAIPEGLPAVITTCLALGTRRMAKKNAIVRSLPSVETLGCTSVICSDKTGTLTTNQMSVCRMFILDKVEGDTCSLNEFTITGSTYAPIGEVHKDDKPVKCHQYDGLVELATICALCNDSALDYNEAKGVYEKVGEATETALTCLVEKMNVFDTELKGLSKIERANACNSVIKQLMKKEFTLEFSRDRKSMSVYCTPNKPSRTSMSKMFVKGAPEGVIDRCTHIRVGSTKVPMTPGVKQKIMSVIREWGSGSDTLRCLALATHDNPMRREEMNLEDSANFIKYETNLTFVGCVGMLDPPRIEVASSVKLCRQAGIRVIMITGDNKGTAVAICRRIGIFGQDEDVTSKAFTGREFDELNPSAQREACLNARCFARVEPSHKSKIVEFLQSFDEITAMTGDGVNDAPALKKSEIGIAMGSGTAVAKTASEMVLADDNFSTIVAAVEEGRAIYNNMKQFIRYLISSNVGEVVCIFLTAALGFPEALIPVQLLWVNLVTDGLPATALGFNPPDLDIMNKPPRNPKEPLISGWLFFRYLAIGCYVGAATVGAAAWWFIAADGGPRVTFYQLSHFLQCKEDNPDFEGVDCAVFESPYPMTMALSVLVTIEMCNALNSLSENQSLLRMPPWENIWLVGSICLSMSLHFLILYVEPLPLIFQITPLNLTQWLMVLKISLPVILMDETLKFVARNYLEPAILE
Method: as §1, §2
While initial screening was performed in skeletal SR enriched with the SERCA1a isoform, high sequence and structural homology with the cardiac SERCA2a isoform predicts a potential for cross reactivity of the Hit compounds. To test this hypothesis, we performed ATPase analyses with cardiac SR microsomes, which are enriched for SERCA2a.

[3] = biological target: T3, SERCA1a (skeletal SR vesicles) (Oryctolagus cuniculus, UniProt P04191); experiment: Oxalate-supported Ca2+-uptake assay, skeletal SR (CRC at pCa 5.4); format: biochemical, rabbit; conditions: n = 3; for Skeletal SR Ca^2+ Uptake Activity Percent Increase: maximal effect of CRC; for Skeletal SR Ca^2+ Uptake Activity Percent Increase / EC50: pCa 5.4, mean ± SD, dash = no observable effect; for EC50: read-out: Skeletal SR Ca^2+ Uptake Activity EC50
T3 construct: rabbit muscles were freshly harvested from the back and hind leg of New Zealand White rabbits and purified using a sucrose gradient; from tissue; host or cells: rabbit (New Zealand White) back and hind leg skeletal muscle, light SR vesicles
T3 sequence (P04191 1-994 isoform P04191-2): as the sequence (P04191 1-994 isoform P04191-2) above
Method: as §1
(§3) To determine compound effect on the Ca^2+-uptake activity of SERCA1a and SERCA2a, we used an oxalate-supported assay. A solution containing 50 mM MOPS (pH 7.0), 100 mM KCl, 30 mg/mL sucrose, 1 mM EGTA, 10 mM potassium oxalate, 2 µM Fluo-4, 30 µg/mL cardiac SR vesicles or 12 μg/mL skeletal SR vesicles, and CaCl2 calculated to reach the desired free [Ca^2+] was dispensed into 384-well black walled, transparent bottomed plates (Greiner Bio-One) containing the tested small molecule and incubated at 21 °C for 20 min while covered and protected from light. To start the reaction, MgATP was added to a final concentration of 5 mM, and the decrease in 485-nm excited fluorescence was monitored at 520 nm for 15 min using a FLIPR Tetra (Molecular Devices, San Jose, CA, USA).
While Ca^2+-dependent ATPase activity is a direct measure of SERCA activity, coupling of ATP hydrolysis to transport of Ca^2+ across the SR membrane is essential for the role of SERCA in cellular physiology. Therefore, we next asked whether our ATPase-based HTS assay could successfully identify compounds that also increase Ca^2+ uptake of SERCA.

[4] = biological target: T2, SERCA2a (cardiac SR vesicles); experiment: Oxalate-supported Ca2+-uptake assay, cardiac SR (CRC at pCa 5.4); format: biochemical, porcine; conditions: n = 3; for Cardiac SR Ca^2+ Uptake Activity Percent Increase: maximal effect of CRC; for Cardiac SR Ca^2+ Uptake Activity Percent Increase / EC50: pCa 5.4, mean ± SD, dash = no observable effect; for EC50: read-out: Cardiac SR Ca^2+ Uptake Activity EC50
Method: as §1, §3
To determine whether the observed increases in SERCA2a ATPase activity translate to Ca^2+ uptake function, we applied our Ca^2+ transport assay to test our selected Hit compounds in cardiac SR (Table 1). Indeed, 16 of the 19 compounds yielded a clear increase in Ca^2+ uptake activity. In fact, eight compounds generated an increase at least 50% greater in cardiac SR than in skeletal SR. Three compounds had either an inhibitory or no effect on Ca^2+ transport, and two of these were also non-activating compounds in skeletal SR.

| Structure (SMILES) | Skeletal SR ATPase Activity Percent Increase [1] [%] | EC50 [1] [µM] | Cardiac SR ATPase Activity Percent Increase [2] [%] | EC50 [2] [µM] | Skeletal SR Ca^2+ Uptake Activity Percent Increase [3] [%] | EC50 [3] [µM] | Compound classification from ATPase vs. Ca^2+ uptake CRCs, skeletal SR ([3]; skeletal SR) | Cardiac SR Ca^2+ Uptake Activity Percent Increase [4] [%] | EC50 [4] [µM] | Compound classification from ATPase vs. Ca^2+ uptake CRCs, cardiac SR ([4]; cardiac SR) |
| --- | --- | --- | --- | --- | --- | --- | --- | --- | --- | --- |
| CCOC(=O)C1(Cc2cccc(C(F)(F)F)c2)CCN(C(=O)c2sccc2C)CC1 [Compound 8] | 45 ± 2 | 4 ± 0.4 | 43 ± 2 | 3.4 ± 0.3 | 13 ± 1 | 1.3 ± 0.4 | Improved Coupling Compounds | 18 ± 2 | 0.8 ± 0.3 |  |
| CCOC(=O)C1(CCc2ccccc2)CCN(C(=O)c2occc2C)CC1 [Compound 9] | 72 ± 2 | 13.3 ± 0.7 | 85 ± 5 | 11 ± 1 | 31 ± 7 | 8 ± 5 |  | 33 ± 3 | 4 ± 0.8 | Linked Activating Compounds |
| Cc1ccc(CN(C)C(=O)CC(c2ccccc2)c2ccc3c(c2)OCO3)o1 (stereo not shown) [Compound 10] | 57 ± 3 | 10 ± 1 | 55 ± 2 | 7.5 ± 0.4 | 11 ± 3 | 4 ± 2 |  | 16 ± 3 | 1.6 ± 0.7 |  |
| Cc1ccsc1CN(C)C(=O)CC(c1ccccc1)c1ccc2c(c1)OCO2 (stereo not shown) [Compound 11] | 61 ± 2 | 7.2 ± 0.4 | 62 ± 2 | 6.4 ± 0.4 | 9.1 ± 0.8 | 1.2 ± 0.3 |  | 18 ± 2 | 1.2 ± 0.4 |  |
